Results from paper PMC9013686, “Inter-individual variation in chlorpyrifos toxicokinetics characterized by physiologically based kinetic (PBK) and Monte Carlo simulation comparing human liver microsome and Supersome™ cytochromes P450 (CYP)-specific kinetic data as model input” (Archives of Toxicology, 2022).

What was measured:
CYP3A4 = CYP3A4 (Homo sapiens, UniProt P08684); details: Supersome CYP3A4; bioactivation of CPF; ref Foxenberg et al. ([2007]); cited from earlier work
rat liver microsomes = details: bioactivation of CPF, biphasic kinetics; ref Ma and Chambers ([1995]); cited from earlier work
CYP2B6 = molecular target: T1, CYP2B6 (Homo sapiens, UniProt P20813); experiment: Supersome CYP2B6 kinetic incubations; type: in vitro ADME; set-up: purchased Corning (Amsterdam, The Netherlands); host or cells: baculovirus-transfected insect cells; details: for Scaled Vmax(app): CYP2B6 scaled to whole liver by Eq. 3; for Vmax (app) / Km: Supersome CYP2B6; for Km: human, recombinant CYP2B6 Supersomes, pH 7.4, Km(app)
T1 sequence (P20813 1-491): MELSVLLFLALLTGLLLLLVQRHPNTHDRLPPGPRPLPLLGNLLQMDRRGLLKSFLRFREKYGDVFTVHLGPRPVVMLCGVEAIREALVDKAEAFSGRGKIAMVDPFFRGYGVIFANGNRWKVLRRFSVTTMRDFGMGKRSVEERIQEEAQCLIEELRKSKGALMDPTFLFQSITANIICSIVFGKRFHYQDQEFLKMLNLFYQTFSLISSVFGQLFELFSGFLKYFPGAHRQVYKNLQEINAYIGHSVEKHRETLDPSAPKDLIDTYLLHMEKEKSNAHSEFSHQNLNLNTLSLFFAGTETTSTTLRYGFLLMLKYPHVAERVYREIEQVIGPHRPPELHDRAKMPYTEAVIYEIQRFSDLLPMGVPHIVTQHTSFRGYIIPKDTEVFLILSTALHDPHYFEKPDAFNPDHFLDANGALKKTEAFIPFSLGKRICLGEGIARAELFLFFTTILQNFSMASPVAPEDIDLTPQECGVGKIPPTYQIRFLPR
Protocol: The final incubations were carried out in 50 mM Tris–HCl (pH 7.4) containing 5 mM MgCl2, 1 mM EDTA (as an A-esterase PON1 inhibitor) (Bizoń and Milnerowicz [2018]), 50 µM iso-OMPA (as a B-esterases inhibitor) (Lane et al. [2006]), Supersome™ isoform (at final concentration of 0.005 nmol CYP/ml for 1A2, 0.001 nmol CYP/ml for 2B6, 0.01 nmol CYP/ml for 2C19, and 0.01 nmol CYP/ml for 3A4) and CPF at different final concentrations (0.05, 0.1, 0.25, 0.5, 1, 5 and 10 µM for 1A2, 0.05, 0.1, 0.25, 0.5, 1, 5 10 and 25 µM for 2B6, 1, 2.5, 5, 10, 25 and 50 µM for 2C19, and 0.5, 1, 2.5, 5, 10, 25 and 50 µM for 3A4), which were added from 100 times concentrated stock solutions in ACN. After 1 min preincubation in a 37 °C water bath, 5 µl NADPH (final concentration 1 mM) was added to the incubation system. Control incubations were performed by replacing NADPH with the same amount of Tris–HCl (pH 7.4). The total volume of the incubation mixtures was 200 µl. The incubations lasted for 2 min at 37 °C and were terminated by addition of 50 µl ice cold ACN and subsquently put on ice. After that, samples were centrifuged at 16,000 g (4 ℃) for 5 min and supernatants of samples were separated into two equal portions for Ultra-Performance Liquid Chromatography-Photodiode Array (UPLC-PDA) and Liquid Chromatography Mass Spectrometry (LC–MS/MS) analysis, respectively.
To normalize for differences in intrinsic CYP activity between Supersome™ and pooled HLMs and enable scaling of the activities to the in vivo situation, CYP-specific ISEF values need to be established. […] The incubation method was similar as used for the CPF kinetic incubation assay described above, except that certain incubation conditions were replaced by the conditions listed in Table 1. The samples obtained were analyzed by UPLC-PDA for acetaminophen, 4-hydroxymephenytoin, and 6β-hydroxytestosterone formation catalyzed by 1A2, 2C19 and 3A4, or LC–MS/MS for (±)-hydroxybupropion formation catalyzed by 2B6.
As mentioned before, the in vitro apparent kinetic parameters (Vmax and Km) for pathway 1 and pathway 2 in the HLM-based approach, and pathway 3 in both approaches were all obtained directly from reported studies using pooled HLMs (Buratti et al. [2003]; Sams et al. [2004]; Zhao et al. [2019]). Therefore, no extra calculations were required to define these parameters. The kinetic parameters for the ISEF calculation, pathway 1 and 2 in the Supersome™-based approach, and pathway 4 in both approaches (25 individuals) were all obtained by fitting the experimental data to the Michaelis–Menten model using GraphPad (GraphPad Prism 5.0 software, San Diego, CA, USA). It should be noted that the kinetic parameters for pathway 4 used in the two approaches were calculated as mean of the kinetic parameters (Vmax and Km) obtained using 25 individual HP samples (with correction for total protein concentration of each plasma sample).
The in vivo Kmi values were assumed to be equal to the apparent Kmi(app) values (µM) obtained in the in vitro incubations, while the in vivo Vmaxi for each CYP isoform was derived from their corresponding apparent CYP isoform Vmaxi(app) (pmol/min/pmolCYP) using Eq. 3:3 Vmaxi=Vmaxiapp×CYPiabundance×ISEF×60×MPL×1000×VL/1,000,000,

CYP2C19 = CYP2C19 (Homo sapiens, UniProt P33261); details: bioactivation of CPF, ref Foxenberg et al. [2007]; cited from earlier work
RBC AChE = experiment: PBK model-based reverse dosimetry and BMD analysis of RBC AChE inhibition; set-up: species or system human
Protocol: In the present study, PBK model-based reverse dosimetry was applied to translate the in vitro rhAChE inhibition concentration–response curve into in vivo RBC AChE inhibition dose–response curves first for the average adult population.
The external dose values thus obtained together with corresponding inhibitory effects were used to construct RBC AChE inhibition dose–response curves for the average population.
A BMD analysis was performed to derive a POD from the predicted in vivo dose–response curves obtained for the average population. In the present study, the BMDL10 values were used as POD based on the fact that the United States Environmental Protection Agency (USEPA) also used a 10% effect level to define a health based guidance value (USEPA [2011], [2014]). BMD analysis was carried out using the Benchmark Dose Software version 3.1.2 (USEPA [2019]), with exponential or hill models because of their adequacy in predicting continuous data. The BMDL10 value with the lowest AIC was chosen and further evaluated by comparing the obtained values with reported BMDL10 by USEPA ([2011], [2014]).

CYP3A4, sequence (P08684 2-503 limits assumed): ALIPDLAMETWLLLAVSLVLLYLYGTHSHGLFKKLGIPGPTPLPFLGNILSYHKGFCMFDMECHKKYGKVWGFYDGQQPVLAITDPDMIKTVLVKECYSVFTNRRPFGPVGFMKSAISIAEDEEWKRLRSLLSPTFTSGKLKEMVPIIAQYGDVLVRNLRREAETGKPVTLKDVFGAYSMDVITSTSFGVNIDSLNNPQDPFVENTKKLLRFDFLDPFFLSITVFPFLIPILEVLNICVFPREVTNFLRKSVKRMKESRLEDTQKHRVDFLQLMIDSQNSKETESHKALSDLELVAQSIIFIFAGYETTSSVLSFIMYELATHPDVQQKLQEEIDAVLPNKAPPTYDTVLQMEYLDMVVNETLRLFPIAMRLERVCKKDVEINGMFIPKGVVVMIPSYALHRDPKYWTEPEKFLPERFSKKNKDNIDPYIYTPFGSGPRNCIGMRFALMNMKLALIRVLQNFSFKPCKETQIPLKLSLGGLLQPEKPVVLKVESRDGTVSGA
CYP2C19, sequence (P33261 whole entry): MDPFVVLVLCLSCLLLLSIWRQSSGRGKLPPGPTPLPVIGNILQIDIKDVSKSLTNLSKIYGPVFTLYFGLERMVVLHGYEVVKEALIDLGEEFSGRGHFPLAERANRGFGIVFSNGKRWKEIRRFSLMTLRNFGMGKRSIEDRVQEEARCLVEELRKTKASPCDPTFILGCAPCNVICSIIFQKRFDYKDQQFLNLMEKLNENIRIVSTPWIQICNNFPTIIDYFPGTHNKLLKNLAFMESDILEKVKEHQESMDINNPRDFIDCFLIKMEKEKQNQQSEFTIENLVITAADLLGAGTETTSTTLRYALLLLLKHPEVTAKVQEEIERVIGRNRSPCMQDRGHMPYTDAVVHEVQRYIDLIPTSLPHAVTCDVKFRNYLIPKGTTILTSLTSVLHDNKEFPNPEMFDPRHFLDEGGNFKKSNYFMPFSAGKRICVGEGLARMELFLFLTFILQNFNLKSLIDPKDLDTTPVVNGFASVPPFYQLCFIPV

In the case of `CCOP(=S)(OCC)Oc1nc(Cl)c(Cl)cc1Cl` [CPF, Chlorpyrifos], the Km (CYP3A4) is listed as 27.3 µM, the “Km of high affinity phase lower than that of low affinity phase” value (rat liver microsomes) is listed as 50 fold and the “Scaled Vmax(app)” value (CYP2B6; Pathway 1 (CPF to CPO)) is listed as 203.94 µmol/h. The “Vmax (app)” value (CYP2B6; Pathway 1 (CPF to CPO)) was 7.76 pmol/min/pmolCYP, the “Scaled Vmax(app)” value (CYP2B6; Pathway 2 (CPF to TCPy)) was 144.28 µmol/h and the “Vmax (app)” value (CYP2B6; Pathway 2 (CPF to TCPy)) was 5.49 pmol/min/pmolCYP. The Km (CYP2B6; Pathway 1 (bioactivation of CPF to CPO)) was 0.14 µM, the Km (CYP2B6; Pathway 2 (detoxification of CPF to TCPy)) was 1.28 µM and the Km (CYP2C19) was 1.23 µM. The “predicted BMDL10 lower than reported human model-derived BMDL10” value (RBC AChE; HLM-based biphasic PBK model versus USEPA [2014]) was 1.8 fold, the “predicted BMDL10 lower than reported human model-derived BMDL10” value (RBC AChE; Supersome-based PBK model versus USEPA [2014]) was 1.9 fold and the “BMDL10 of HLM-based approach with biphasic kinetics versus HLM-based approach without high affinity component” value (RBC AChE; average population) was “sixfold lower”. For the same compound, the “difference in BMDL10 between HLM-based (biphasic) and Supersome-based PBK model” value (RBC AChE; average population) was 1.04 fold and the “predicted BMDL10 higher than reported human model-derived BMDL10” value (RBC AChE; non-biphasic HLM-based PBK model versus USEPA [2014]) was 3.3 fold.
